Test results published in patent US20060115815A1 (priority 2002, published 2006).

tested on: wild-type HIV-1 strain IIIB; assay: microbe, parasite or virus in culture; type: cell-based; conditions: read-out: EC50

SMILES | EC50
COC(=O)C(C)OP(=O)(COc1ccc(C[C@H](NC(=O)O[C@H]2CO[C@H]3OCC[C@H]32)[C@H](O)CN(CC(C)C)S(=O)(=O)c2ccc(OC)cc2)cc1)Oc1ccccc1 (stereo partly drawn) [drawing 658 R1=OPh R2=Lac-Me] | 50 to 500 nM
COc1ccc(S(=O)(=O)N(CC(C)C)C[C@@H](O)[C@H](Cc2ccc(OCP(=O)(Oc3ccccc3)OC(C)C(=O)OCCCN3CCOCC3)cc2)NC(=O)O[C@H]2CO[C@H]3OCC[C@H]32)cc1 (stereo partly drawn) [drawing 658 R1=OPh R2=Lac-PrMor] | > 5000 nM
CCOC(=O)C(CC)OP(=O)(COc1ccc(CC(NC(=O)OC2COC3OCCC23)C(O)CN(CC(C)C)S(=O)(=O)c2ccc(OC)cc2)cc1)Oc1ccccc1 [drawing 659 R1=OPh R2=(R)Hba-Et] | < 50 nM
CCOC(=O)C(CC)OP(=O)(COc1ccc(CC(NC(=O)OC2COC3OCCC23)C(O)CN(CC(C)C)S(=O)(=O)c2ccc(OC)cc2)cc1)Oc1ccccc1 [drawing 659 R1=OPh R2=(S)Hba-Et] | < 50 nM
CCC(OP(=O)(COc1ccc(CC(NC(=O)OC2COC3OCCC23)C(O)CN(CC(C)C)S(=O)(=O)c2ccc(OC)cc2)cc1)Oc1ccccc1)C(=O)OC(C)(C)C [drawing 659 R1=OPh R2=(S)Hba-tBu] | < 50 nM
COc1ccc(S(=O)(=O)N(CC(C)C)C[C@@H](O)[C@H](Cc2ccc(OCP(=O)(Oc3ccccc3)O[C@@H](C)C(=O)OCCN3CCOCC3)cc2)NC(=O)O[C@H]2CO[C@H]3OCC[C@H]32)cc1 (stereo partly drawn) [drawing 659 R1=OPh R2=(S)Lac-EtMor] | > 5000 nM
COc1ccc(S(=O)(=O)N(CC(C)C)C[C@@H](O)[C@H](Cc2ccc(OCP(=O)(Oc3ccccc3)O[C@@H](C)C(=O)OCCN3CCCCC3)cc2)NC(=O)O[C@H]2CO[C@H]3OCC[C@H]32)cc1 (stereo partly drawn) [drawing 659 R1=OPh R2=(S)Lac-EtPip] | 50 to 500 nM
COc1ccc(S(=O)(=O)N(CC(C)C)C[C@@H](O)[C@H](Cc2ccc(OCP(=O)(Oc3ccccc3)O[C@@H](C)C(=O)OCCCN3CCOCC3)cc2)NC(=O)O[C@H]2CO[C@H]3OCC[C@H]32)cc1 (stereo partly drawn) [drawing 659 R1=OPh R2=(S)Lac-PrMor] | > 5000 nM
CCOC(=O)[C@H](C)OP(=O)(COc1ccc(C[C@H](NC(=O)O[C@H]2CO[C@H]3OCC[C@H]32)[C@H](O)CN(CC(C)C)S(=O)(=O)c2ccc(OC)cc2)cc1)ON1CCOCC1 (stereo partly drawn) [drawing 660 R1=OMor R2=(S)Lac-Et] | > 5000 nM
CCOC(=O)[C@H](C)OP(=O)(COc1ccc(C[C@H](NC(=O)O[C@H]2CO[C@H]3OCC[C@H]32)[C@H](O)CN(CC(C)C)S(=O)(=O)c2ccc(OC)cc2)cc1)ON(C)C (stereo partly drawn) [drawing 660 R1=ONMe2 R2=(S)Lac-Et] | 50 to 500 nM
CCOC(=O)[C@H](C)OP(=O)(COc1ccc(C[C@H](NC(=O)O[C@H]2CO[C@H]3OCC[C@H]32)[C@H](O)CN(CC(C)C)S(=O)(=O)c2ccc(OC)cc2)cc1)Oc1cccc(CN2CCOCC2)c1 (stereo partly drawn) [drawing 660 R1=OPh-m-CH2Mor R2=(S)Lac-Et] | 50 to 500 nM
CCOC(=O)[C@H](C)OP(=O)(COc1ccc(C[C@H](NC(=O)O[C@H]2CO[C@H]3OCC[C@H]32)[C@H](O)CN(CC(C)C)S(=O)(=O)c2ccc(OC)cc2)cc1)Oc1cccc(CN(C)C)c1 (stereo partly drawn) [drawing 660 R1=OPh-m-CH2NMe2 R2=(S)Lac-Et] | 500 to 5000 nM
CCOC(=O)[C@H](C)OP(=O)(COc1ccc(C[C@H](NC(=O)O[C@H]2CO[C@H]3OCC[C@H]32)[C@H](O)CN(CC(C)C)S(=O)(=O)c2ccc(OC)cc2)cc1)Oc1cccc(CN(C)CCOC)c1 (stereo partly drawn) [drawing 660 R1=OPh-m-CH2NMeC2OM R2=(S)Lac-Et] | 50 to 500 nM
CCOC(=O)[C@H](C)OP(=O)(COc1ccc(C[C@H](NC(=O)O[C@H]2CO[C@H]3OCC[C@H]32)[C@H](O)CN(CC(C)C)S(=O)(=O)c2ccc(OC)cc2)cc1)Oc1cccc(CO)c1 (stereo partly drawn) [drawing 660 R1=OPh-m-CH2OH R2=(S)Lac-Et] | 50 to 500 nM
CCOC(=O)[C@H](C)OP(=O)(COc1ccc(C[C@H](NC(=O)O[C@H]2CO[C@H]3OCC[C@H]32)[C@H](O)CN(CC(C)C)S(=O)(=O)c2ccc(OC)cc2)cc1)Oc1cccc(CN2CCCCC2)c1 (stereo partly drawn) [drawing 660 R1=OPh-m-CH2Pip R2=(S)Lac-Et] | 50 to 500 nM
